In patent publication US9255062B2, “Fatty acid derivatives for oral administration endowed with high palatability” (priority 2008, dated 2016):

Assays:
Caco-2 cells = assay: Ussing chamber, short circuit current in Caco-2 monolayer, baseline conditions; assay type: cell-based, human; settings: Caco-2 in Ussing chamber; for decrease in short circuit current (ΔIsc), maximum effect: final concentration 10 mM; for decrease in short circuit current (ΔIsc), maximum effect / time of maximum decrease in Isc after addition: luminal (mucosal) side; for effect on tissue conductance: luminal side, measure of tissue integrity
Procedure: The experiments were carried out using a human intestinal cell line called Caco-2, obtained from the American Type Culture Collection (ATCC, Rockville, USA). These cells, 15 days after confluence, form a monolayer of enterocytes with morphological and functional features identical to those of ileal enterocytes at the apex of the villus (Berni Canani R, et al. Gastroenterology 2003; 124:368-76). Cells were grown in a culture medium consisting in Dulbecco's Modified Eagle's Medium (DMEM) containing glucose (4.5 g/L), 10% Fetal Calf Serum (FCS), 1% non-essential amino acids, 1% L-glutamine, 1% sodium pyruvate, streptomycin ([…]), penicillin ([…]), and were incubated at 37° C. in an atmosphere of 5% CO2 and […]. The culture medium was replaced every day.
For all the experiments were used cells at the 30th-40th pass, 2×10^6 cells per filter, grown on polycarbonate supports (pore size 0.4 μm, diameter 24.5 mm) for 15 days post-confluence. Each support containing the cells was mounted in an Ussing chamber (World Precision Instruments, Sarasota, Fla.) as a cellular monolayer between the luminal and the serosal compartments (Berni Canani R, et al. J. Pediatr. Gastroenterol. Nutr. 28: 315-320, 1999). The Ussing chamber system, allows through the measurement of defined electrical parameters, the study of transepithelial transport of water and electrolytes. These parameters consist in: 1) transepithelial potential difference (PD) and short circuit current (Isc), an expression of the transepithelial passage of ions; 2) resistance (RT) and, ionic conductance (G), a measure of tissue integrity. An absorptive-type stimulus on transepithelial transport induces a decrease in Isc, whereas a secretory-type stimulus induces an increase in Isc. The Isc is expressed in microamperes per square centimeter (μA/cm^2), conductance in millisiemens per square centimeter (mS/cm^2) and the transepithelial potential difference in millivolts (mV). Measurement of these electrical parameters is made possible by the presence of silver electrodes, placed proximally to both sides (serosal and luminal) of the cellular monolayer and connected with an automatic voltage system equipped with software for data acquisition and processing (DVC 1000, World Precision Instruments, Sarasota, Fla., USA). Each compartment contained 10 ml of Ringer's solution with the following composition (in mmol/L): NaCl, 114; KCl, 5; NaH2PO4, 0.3; Na2HPO4, 1.65; CaCl2, 1.25; MgCl2, 1.1; NaHCO3, 25; glucose, 10. The incubation liquid was circulated through the chamber by means of the flow of a gaseous mixture composed of 95% O2 and 5% CO2 and was maintained at a temperature of 37° C. by means of a thermostat (Berni Canani R. et al. J. Pediatr. Gastroenterol. Nutr. 28: 315-320, 1999). The study of changes in electrical parameters reflecting changes in transepithelial transport of water and electrolytes was carried out in baseline conditions and after administration of the compounds on the luminal side of the monolayer of Caco-2 cells.

Swiss mice = settings: oral administration
in vivo = settings: both, Swiss, mouse, po

Row | SMILES | decrease in short circuit current (ΔIsc), maximum effect (Caco-2 cells) | time of maximum decrease in Isc after addition (Caco-2 cells) | effect on tissue conductance (Caco-2 cells) | LD50 expressed as equivalent of butyric acid (Swiss mice) | LD50 (in vivo)
1 | CCCC(=O)NC(Cc1ccccc1)C(N)=O (stereo not shown) [Compound 1, N-(1-carbamoyl-2-phenyl-ethyl)butyramide] | −0.9±0.3 μA/cm^2 | approximately 40 minutes | without interfering with the stability of tissue conductance | 8.8 g | 23800 mg/kg
2 | CCCC(=O)NC(=O)C(Cc1ccccc1)NC(=O)CCC (stereo not shown) [Compound 2, N-(1-butyroyl-carbamoyl-2-phenyl-ethyl)butyramide] | −0.4±0.1 μA/cm^2 | 40 to 45 min | without interfering with the stability of tissue conductance | 8.8 g | 16300 mg/kg
3 | CCCC1=NC(=O)C(Cc2ccccc2)N1 (stereo not shown) [Compound 3, 5-benzyl-2-propyl-1H-imidazol-4(5H)-one] | −1.1±0.1 μA/cm^2 | 50 min | absence of any significant changes in tissue conductance | 8.8 g | 21600 mg/kg
4 | CCCC(=O)O [butyric acid, reference compound] | – | – | – | – | 8800 mg/kg
5 | CCCC(=O)[O-].[Na+] [sodium butyrate, reference compound] | −0.8±0.2 μA/cm^2 | approximately 35 minutes | did not alter tissue conductance | – | –
